# Test results from ChEMBL document CHEMBL5236643, “Discovery and characterization of orally bioavailable 4-chloro-6-fluoroisophthalamides as covalent PPARG inverse-agonists” (Bioorg Med Chem, 2023).
# The source made the active and inactive calls. The rule behind the calls is not given here.
# How the values were obtained:
# [1] = Antiproliferative activity against human UM-UC-9 assessed as inhibition of cell proliferation by measuring maximum efficacy after 7 days by IncuCyte live-cell imaging assay; format: functional; conditions: UM-UC-9, 168 h, time 7 day
# [2] = Microsomal stability in human liver microsomes assessed as intrinsic clearance at 1 uM measured upto 60 mins in presence of NADPH by HPLC-MS/MS analysis; format: ADME, Microsome; conditions: read-out: CLH (converted)
# [3] = AUClast in Wistar rat at 0.3 mg/kg,iv measured upto 24 hrs by HPLC-MS/MS analysis; format: ADME, organism-based; parameters: dose 0.3 mg/kg, time < 24 hrs, route iv; conditions: in vivo
# [4] = target: T1, Peroxisome proliferator-activated receptor gamma (Mus musculus) (UniProt P37238); experiment: Inverse agonist activity at PPARgamma in NMRI-nu/nu mouse assessed as reduction in Fabp4 mRNA expression in adipose tissue at 100 mg/kg for 3 days and measured 6 hrs last dose by qPCR analysis; format: organism-based; conditions: time 3.0 day
# T1 sequence (whole entry): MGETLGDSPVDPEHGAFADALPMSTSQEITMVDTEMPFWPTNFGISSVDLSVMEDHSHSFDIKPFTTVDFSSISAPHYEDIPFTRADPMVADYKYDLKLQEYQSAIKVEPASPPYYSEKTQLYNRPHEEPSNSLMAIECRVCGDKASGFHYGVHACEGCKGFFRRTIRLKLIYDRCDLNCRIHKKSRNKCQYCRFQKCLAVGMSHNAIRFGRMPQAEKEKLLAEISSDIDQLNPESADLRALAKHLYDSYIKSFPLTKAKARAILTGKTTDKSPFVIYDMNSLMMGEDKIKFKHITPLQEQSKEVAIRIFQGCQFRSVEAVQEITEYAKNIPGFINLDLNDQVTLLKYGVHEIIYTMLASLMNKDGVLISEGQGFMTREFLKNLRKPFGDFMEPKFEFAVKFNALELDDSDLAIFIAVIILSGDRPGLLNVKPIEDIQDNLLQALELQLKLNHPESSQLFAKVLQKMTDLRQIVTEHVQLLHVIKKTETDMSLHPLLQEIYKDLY
# [5] = target: T1, Peroxisome proliferator-activated receptor gamma (Mus musculus); experiment: Inverse agonist activity at PPARgamma in NMRI-nu/nu mouse assessed as decrease in Acaab1 mRNA expression in adipose tissue at 50 mg/kg for 3 days and measured upto 15 hrs last dose by qPCR analysis; format: organism-based; conditions: filed as inverse agonist, time 3.0 day
# [6] = Stability of compound in cysteine at pH 7.4 assessed as parent compound remaining at 10 mM and measured after 24 hrs by HPLC-UV analysis; format: physicochemical; conditions: cysteine solution, read-out: Stability
# [7] = Stability of compound in cysteine at pH 7.4 assessed as parent compound remaining at 10 mM and measured after 1 hrs by HPLC-UV analysis; format: physicochemical; conditions: cysteine solution, read-out: Stability
# [8] = Stability in rat hepatocytes assessed as intrinsic clearance at 1 uM incubated for 1 hr by HPLC-MS/MS analysis; format: ADME, cell-based, Hepatocyte; conditions: read-out: CLH (converted)
# [9] = Volume of distribution at steady state in Wistar rat at 0.3 mg/kg,iv measured upto 24 hrs by HPLC-MS/MS analysis; format: ADME, organism-based; conditions: in vivo, read-out: Vdss
# [10] = target: T1, Peroxisome proliferator-activated receptor gamma (Mus musculus); experiment: Inverse agonist activity at PPARgamma in NMRI-nu/nu mouse assessed as reduction in Fabp4 mRNA expression in adipose tissue at 50 mg/kg for 3 days and measured 6 hrs last dose by qPCR analysis; format: organism-based; conditions: time 3.0 day
# [11] = Tmax in NMRI-nu/nu mouse at 100 mg/kg,po measured upto 24 hrs by HPLC-MS/MS analysis; format: ADME, organism-based; conditions: in vivo
# [12] = Clearance in Wistar rat at 0.3 mg/kg,iv measured upto 24 hrs by HPLC-MS/MS analysis; format: ADME, organism-based; conditions: in vivo
# [13] = target: T1, Peroxisome proliferator-activated receptor gamma (Mus musculus); experiment: Inverse agonist activity at PPARgamma in NMRI-nu/nu mouse assessed as fold reduction in Fabp4 mRNA expression in adipose tissue at 50 mg/kg for 3 days and measured 15 hrs last dose by qPCR analysis; format: organism-based; conditions: filed as inverse agonist, time 3.0 day
# [14] = AUClast in NMRI-nu/nu mouse at 100 mg/kg,po measured upto 24 hrs by HPLC-MS/MS analysis; format: ADME, organism-based; parameters: time < 24 hrs, dose 100 mg/kg, route po; conditions: in vivo
# [15] = Stability of compound in GSH at pH 7.4 assessed as parent compound remaining at 10 mM and measured after 1 hrs by HPLC-UV analysis; format: physicochemical; conditions: GSH solution, read-out: Stability
# [16] = Stability of compound in GSH at pH 7.4 assessed as parent compound remaining at 10 mM and measured after 2 hrs by HPLC-UV analysis; format: physicochemical; conditions: GSH solution, read-out: Stability
# [17] = Thermodynamic solubility of compound at pH 6.5 PBS buffer; format: physicochemical; conditions: read-out: Therm_solubility
# [18] = Stability of compound in GSH at pH 7.4 assessed as parent compound remaining at 10 mM and measured after 4 hrs by HPLC-UV analysis; format: physicochemical; conditions: GSH solution, read-out: Stability
# [19] = Apparent permeability across basolateral to apical side in human Caco-2 cells at 2 uM incubated for 2 hrs by LC-MS/MS analysis; format: ADME, cell-based
# [20] = Half life in Wistar rat at 0.3 mg/kg,iv measured upto 24 hrs by HPLC-MS/MS analysis; format: ADME, organism-based; conditions: in vivo
# [21] = target: T2, Nuclear receptor subfamily 1 group I member 2 (Homo sapiens, UniProt O75469); experiment: Transactivation of human PXR in human HepG2 cells co-expressing luciferase gene under control of CYP3A4 promoter assessed as increase in luciferase activity incubated for 24 hrs by luminescence based analysis; format: ADME, cell-based
# T2 sequence (O75469 whole entry): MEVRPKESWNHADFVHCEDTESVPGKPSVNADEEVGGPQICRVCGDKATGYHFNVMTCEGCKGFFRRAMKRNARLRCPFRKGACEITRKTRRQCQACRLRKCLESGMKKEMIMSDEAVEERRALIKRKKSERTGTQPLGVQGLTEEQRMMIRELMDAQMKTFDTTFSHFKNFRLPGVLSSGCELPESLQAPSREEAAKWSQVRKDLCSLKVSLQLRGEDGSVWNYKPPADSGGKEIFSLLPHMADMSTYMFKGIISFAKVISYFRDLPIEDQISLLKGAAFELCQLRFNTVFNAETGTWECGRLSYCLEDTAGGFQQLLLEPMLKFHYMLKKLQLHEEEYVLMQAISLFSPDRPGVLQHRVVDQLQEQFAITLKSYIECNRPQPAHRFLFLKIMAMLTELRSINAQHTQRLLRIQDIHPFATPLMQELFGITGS
# [22] = Stability of compound in cysteine at pH 7.4 assessed as parent compound remaining at 10 mM and measured after 2 hrs by HPLC-UV analysis; format: physicochemical; conditions: cysteine solution, read-out: Stability
# [23] = Stability of compound in GSH at pH 7.4 assessed as parent compound remaining at 10 mM and measured after 24 hrs by HPLC-UV analysis; format: physicochemical; conditions: GSH solution, read-out: Stability
# [24] = Cmax in NMRI-nu/nu mouse at 100 mg/kg,po measured upto 24 hrs by HPLC-MS/MS analysis; format: ADME, organism-based; parameters: time < 24 hrs, dose 100 mg/kg, route po; conditions: in vivo
# [25] = Antiproliferative activity against human UM-UC-9 assessed as inhibition of cell proliferation measured after 7 days by IncuCyte live-cell imaging assay; conditions: UM-UC-9, 168 h
# [26] = Stability of compound in cysteine at pH 7.4 assessed as parent compound remaining at 10 mM and measured after 4 hrs by HPLC-UV analysis; format: physicochemical; conditions: cysteine solution, read-out: Stability
# [27] = target: T3, Peroxisome proliferator-activated receptor alpha (Homo sapiens, UniProt Q07869); experiment: Agonist activity at human PPARalpha expressed in CHO cells co-expressing GAL4-NHR-LBD assessed as transcriptional activation preincubated for 6 hrs followed by luciferin addition by luminescence method; format: cell-based
# T3 sequence (Q07869 whole entry): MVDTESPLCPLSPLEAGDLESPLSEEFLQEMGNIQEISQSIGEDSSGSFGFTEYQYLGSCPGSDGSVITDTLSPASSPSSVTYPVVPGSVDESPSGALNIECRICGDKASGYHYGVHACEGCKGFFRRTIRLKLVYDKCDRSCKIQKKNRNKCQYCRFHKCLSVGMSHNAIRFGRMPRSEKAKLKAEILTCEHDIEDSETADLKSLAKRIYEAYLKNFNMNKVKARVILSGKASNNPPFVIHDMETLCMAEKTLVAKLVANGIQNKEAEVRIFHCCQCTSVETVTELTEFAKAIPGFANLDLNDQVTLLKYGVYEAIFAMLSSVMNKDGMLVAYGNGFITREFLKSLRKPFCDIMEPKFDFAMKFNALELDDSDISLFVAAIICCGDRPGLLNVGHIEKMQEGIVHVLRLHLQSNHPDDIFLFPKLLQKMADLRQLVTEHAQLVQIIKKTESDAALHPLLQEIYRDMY
# [28] = target: T4, Peroxisome proliferator-activated receptor delta (Homo sapiens, UniProt Q03181); experiment: Inverse agonist activity at human PPARdelta expressed in CHO cells co-expressing GAL4-NHR-LBD assessed as transcriptional repression preincubated for 6 hrs followed by luciferin addition by luminescence method; format: cell-based
# T4 sequence (Q03181 whole entry): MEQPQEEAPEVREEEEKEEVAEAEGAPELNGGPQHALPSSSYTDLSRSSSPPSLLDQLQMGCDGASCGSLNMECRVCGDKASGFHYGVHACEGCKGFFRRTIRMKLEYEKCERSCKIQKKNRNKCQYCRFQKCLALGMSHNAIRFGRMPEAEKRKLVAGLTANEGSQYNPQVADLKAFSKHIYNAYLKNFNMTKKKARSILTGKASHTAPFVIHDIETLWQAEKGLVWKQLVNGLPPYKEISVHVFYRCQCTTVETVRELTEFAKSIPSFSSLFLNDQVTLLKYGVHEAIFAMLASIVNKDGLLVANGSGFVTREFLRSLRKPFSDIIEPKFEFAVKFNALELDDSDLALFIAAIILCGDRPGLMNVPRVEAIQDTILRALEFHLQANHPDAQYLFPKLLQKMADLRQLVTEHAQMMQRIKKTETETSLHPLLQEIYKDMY
# [29] = target: T5, Peroxisome proliferator-activated receptor alpha (Homo sapiens) (UniProt Q07869); experiment: Agonist activity at human PPARalpha expressed in CHO cells co-expressing GAL4-NHR-LBD assessed as transcriptional activation by measuring maximum efficacy preincubated for 6 hrs followed by luciferin addition by luminescence method; format: cell-based; conditions: filed as agonist
# T5 sequence (whole entry): T3 sequence (Q07869 whole entry)
compound,measurement,setting,value
Cc1cc(OC(F)F)ccc1NC(=O)c1cc(C(=O)NCc2ccc(F)cc2)c(F)cc1Cl,Emax,[1],55%
same,CLint scaled at 1 µM,[2],12.7 mL/min/kg
same,AUClast,[3],1.6 kg·h/L
same,Activity,[4],inactive
same,Activity,[5],Active
same,"remaining at 24 h, 10000 µM",[6],51.6%
same,"remaining at 1 h, 10000 µM",[7],93%
same,CLint scaled at 1 µM,[8],28.8 mL/min/kg
same,Vd,[9],2.7 L/kg
same,Activity,[10],inactive
same,Tmax,[11],7 h
same,clearance,[12],10.3 mL/min/kg
same,Activity,[13],Active
same,AUC(0-t) at 24 h,[14],12000 ng·h/mL
same,"remaining at 1 h, 10000 µM",[15],74.8%
same,"remaining at 2 h, 10000 µM",[16],56.4%
same,solubility thermodynamic,[17],0.1 µg/mL
same,"remaining at 4 h, 10000 µM",[18],46.5%
same,"Papp B→A at 2 h, 2 µM",[19],23.8 ×10⁻⁶ cm/s
same,half-life,[20],4.8 h
same,IC50,[21],14700 nM
same,"remaining at 2 h, 10000 µM",[22],77.8%
same,"remaining at 24 h, 10000 µM",[23],32%
same,Cmax,[24],2100 nM
same,IC50,[25],19.4 nM
same,"remaining at 4 h, 10000 µM",[26],71%
O=C(Nc1ccncc1)c1cc([N+](=O)[O-])ccc1Cl,IC50,[27],2950 nM
same,IC50,[28],> 5000 nM
same,Emax,[29],289%
